Measured values taken from patent publication US5508295A, “Use of amino acyl amino propargyl diol compounds for treatment of glaucoma” (G. D. Searle & Co., priority 1994, dated 1996).
Non-standard residues stand in square brackets, D forms with d. Residues, ends and D or L forms follow the SMILES beside them. *: point of attachment. Sta = CC(C)C[C@H](N)[C@@H](O)CC(=O)O; Isovaleryl = CC(C)CC(=O)*

Key:
human renin = target: T1, human renin (Homo sapiens, UniProt P00797); test: Human Renin Inhibition in vitro (angiotensin I by radioimmunoassay); type: biochemical; conditions: pH 7.4, two hours at 37° C.
T1 construct: purchased National Institute for Biological Standards, London
T1 sequence (P00797 67-406): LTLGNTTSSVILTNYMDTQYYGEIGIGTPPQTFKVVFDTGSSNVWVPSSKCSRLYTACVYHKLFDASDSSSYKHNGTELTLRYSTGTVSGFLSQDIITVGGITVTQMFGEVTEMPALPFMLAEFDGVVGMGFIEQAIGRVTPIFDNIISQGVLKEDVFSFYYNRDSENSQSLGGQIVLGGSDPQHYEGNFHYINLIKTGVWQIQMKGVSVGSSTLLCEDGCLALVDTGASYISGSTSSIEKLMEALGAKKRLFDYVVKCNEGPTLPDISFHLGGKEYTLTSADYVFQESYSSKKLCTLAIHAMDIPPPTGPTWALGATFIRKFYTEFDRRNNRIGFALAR
Method: Compounds of Formula I were evaluated as inhibitors of human renin in an in vitro assay, as follows: This human renin inhibition test has been previously described in detail [Papaioannou et al., Clinical and Experimental Hypertension, A7(9), 1243-1257 (1985)]. Human renin was obtained from the National Institute for Biological Standards, London. An incubation mixture was prepared containing the following components: in a total volume of 0.25 mL: 100 mM Tris-acetate buffer at pH 7.4, 25×10-6 Goldblatt units of renin, 0.05 mL of plasma from human volunteers taking oral contraceptives, 6.0 mM Na-EDTA, 2.4 mM phenylmethyl sulfonyl fluoride, 1.5 mM 8-hydroxyquinoline, 0.4 mg/mL bovine serum albumin (BSA), and 0.024 mg/mL neomycin sulfate. This mixture was incubated for two hours at 37° C. in the presence or absence of renin inhibitors. The produced angiotensin I was determined by radioimmunoassay (New England Nuclear kit). Test compounds to be assayed were dissolved in DMSO and diluted with 100 mM Tris-acetate buffer at pH 7.4 containing 0.5% BSA to the appropriate concentration. The final concentration of organic solvent in the reaction mixture was less than 1%. Control incubations at 37° C. were used to correct for effects of organic solvent on renin activity.

pepsin = conditions: Umezawa et al, J. Antibiot. 1970; cited from earlier work
cathepsin D = conditions: Umezawa et al, J. Antibiot. 1970; cited from earlier work
renin = conditions: Umezawa et al, J. Antibiot. 1970; cited from earlier work
blood pressure = conditions: after the injection of hog renin into nephrectomized rats; Gross et al, Science 1971; cited from earlier work

SMILES	IC50 (human renin) [µM]	inhibitor of aspartyl proteases: pepsin (pepsin)	inhibitor of aspartyl proteases: cathepsin D (cathepsin D)	inhibitor of aspartyl proteases: renin (renin)	reduce blood pressure in vivo (blood pressure)
C#CC[C@H](O)[C@H](O)[C@H](CC1CCCCC1)NC(=O)[C@H](Cc1cscn1)NC(=O)[C@@H](CC(=O)N(C)CCN(C)C)Cc1ccccc1 [Example 1, N^1-[2-[[1S,1R*-(cyclohexylmethyl-2S*,3R*-dihydroxy-5-hexynyl]amino]-2-oxo-1R*-(4-thiazolylmethyl)ethyl]-N^4-[2-(dimethylamino)ethyl]-N^4-methyl-2S*-(phenylmethyl)butanediamide]	0.028	–	–	–	–
CC(C)CC(=O)N[C@H](C(=O)N[C@H](C(=O)N[C@@H](CC(C)C)[C@@H](O)CC(=O)N[C@@H](C)C(=O)N[C@@H](CC(C)C)[C@@H](O)CC(=O)O)C(C)C)C(C)C [pepstatin] (Isovaleryl-VV[Sta]A[Sta]-OH)	–	inhibitor of aspartyl proteases such as pepsin	inhibitor of aspartyl proteases such as pepsin, cathepsin D	inhibitor of aspartyl proteases such as pepsin, cathepsin D and renin	found to reduce blood pressure in vivo
